Reference: US10358434B2, “2-(3-pyridinyl)-1H-benzimidazole derivative compound and medicament containing same” (NIHON MEDI-PHYSICS CO., LTD., priority 2014, dated 2019)

Tests used:
[1] = system: human adrenal gland section expressing aldosterone-producing adenoma; assay: In vitro autoradiography using human adrenal adenoma; assay type: binding; conditions: section of FIG. 17(b)
Procedure, shortened: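 Autoradiography readout: PSL in equal-sized ROIs over adenoma (B2) and normal adrenal cortex (B1), expressed as B2/B1 and decay-corrected using half-life, applied activity and plate contact time. Tissue was surgically excised human adrenal, frozen and cut at 7 μm, incubated 10 min with 5-33 kBq/mL tracer in BSA-containing PBS, then imaged after 16-20 h exposure.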

[2] = In vivo kinetics experiment (radioactivity distribution); parameters: species or system Wistar male rat; conditions: rat i.v., mean ± SD
Procedure, shortened: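 Tissue radioactivity (% ID/g) and adrenal-to-blood, liver, kidney, small intestine, muscle and fat ratios determined at 10, 30 and 60 min post-dose. Tracers (approximately 1 to 3.7 MBq, saline with 1 w/v % ascorbic acid) injected i.v. into caudal vein of anesthetized 9-week male Wistar rats; organs excised, weighed, counted.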

[3] = Plasma stability evaluation (TLC analysis); assay type: in vitro ADME; conditions: 37° C., 60 minutes, TLC analysis
Procedure, shortened: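 TLC analysis, using each compound's synthesis conditions, judged stability after methanol was added and samples were centrifuged to remove protein. Beforehand, each tracer had spent 60 minutes at 37° C in pooled heparinized normal human plasma.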

CC(C)n1c(-c2cncc(Cn3ccnc3)c2)nc2ccc([123I])cc21 [[^123I] 606, 2-[5-{(1H-imidazol-1-yl)methyl}pyridin-3-yl]-6-[^123I]iodo-1-isopropyl-1H-benzo[d]imidazole]
B2/B1 accumulation ratio [1]: 0.87
B2 (PSL value, aldosterone-producing adenoma) ([1]; site 71b): 1655
B1 (PSL value, normal adrenal cortex) ([1]; site 72b): 1913
Adrenal gland/blood ratio of radioactivity accumulation ([2]; 10 min after administration): 85.09 ± 27.52
Adrenal gland/fat ratio of radioactivity accumulation ([2]; 10 min after administration): 100.88 ± 26.65
Adrenal gland/kidney ratio of radioactivity accumulation ([2]; 10 min after administration): 10.11 ± 2.69
Adrenal gland/liver ratio of radioactivity accumulation ([2]; 10 min after administration): 4.02 ± 1.20
Adrenal gland/muscle ratio of radioactivity accumulation ([2]; 10 min after administration): 57.42 ± 9.23
Adrenal gland/small intestine ratio of radioactivity accumulation ([2]; 10 min after administration): 9.70 ± 3.04
Radioactivity distribution Adrenal gland ([2]; 10 min after administration): 13.01 ± 3.75 % ID/g
Radioactivity distribution Bladder (including urine) ([2]; 10 min after administration): 0.27 ± 0.01 % ID/g
Radioactivity distribution Blood ([2]; 10 min after administration): 0.15 ± 0.01 % ID/g
Radioactivity distribution Fat ([2]; 10 min after administration): 0.13 ± 0.01 % ID/g
Radioactivity distribution Femur ([2]; 10 min after administration): 0.59 ± 0.02 % ID/g
Radioactivity distribution Heart ([2]; 10 min after administration): 0.56 ± 0.04 % ID/g
Radioactivity distribution Kidney ([2]; 10 min after administration): 1.29 ± 0.11 % ID/g
Radioactivity distribution Large intestine ([2]; 10 min after administration): 0.17 ± 0.00 % ID/g
Radioactivity distribution Liver ([2]; 10 min after administration): 3.24 ± 0.05 % ID/g
Radioactivity distribution Lung ([2]; 10 min after administration): 0.86 ± 0.07 % ID/g
Radioactivity distribution Muscle (lower limbs) ([2]; 10 min after administration): 0.22 ± 0.04 % ID/g
Radioactivity distribution Remaining whole body ([2]; 10 min after administration): 0.29 ± 0.02 % ID/g
Radioactivity distribution Small intestine ([2]; 10 min after administration): 1.35 ± 0.04 % ID/g
Radioactivity distribution Spleen ([2]; 10 min after administration): 4.55 ± 0.41 % ID/g
Radioactivity distribution Stomach ([2]; 10 min after administration): 0.75 ± 0.09 % ID/g
Radioactivity distribution Testis ([2]; 10 min after administration): 0.08 ± 0.00 % ID/g
Radioactivity distribution Whole brain ([2]; 10 min after administration): 0.03 ± 0.00 % ID/g
Adrenal gland/blood ratio of radioactivity accumulation ([2]; 30 min after administration): 151.28 ± 30.77
Adrenal gland/fat ratio of radioactivity accumulation ([2]; 30 min after administration): 172.63 ± 42.67
Adrenal gland/kidney ratio of radioactivity accumulation ([2]; 30 min after administration): 20.98 ± 3.60
Adrenal gland/liver ratio of radioactivity accumulation ([2]; 30 min after administration): 8.21 ± 1.88
Adrenal gland/muscle ratio of radioactivity accumulation ([2]; 30 min after administration): 130.86 ± 25.55
Adrenal gland/small intestine ratio of radioactivity accumulation ([2]; 30 min after administration): 7.82 ± 2.11
Radioactivity distribution Adrenal gland ([2]; 30 min after administration): 21.23 ± 4.43 % ID/g
Radioactivity distribution Bladder (including urine) ([2]; 30 min after administration): 1.17 ± 0.36 % ID/g
Radioactivity distribution Blood ([2]; 30 min after administration): 0.14 ± 0.00 % ID/g
Radioactivity distribution Fat ([2]; 30 min after administration): 0.12 ± 0.01 % ID/g
Radioactivity distribution Femur ([2]; 30 min after administration): 0.50 ± 0.01 % ID/g
Radioactivity distribution Heart ([2]; 30 min after administration): 0.44 ± 0.01 % ID/g
Radioactivity distribution Kidney ([2]; 30 min after administration): 1.01 ± 0.04 % ID/g
Radioactivity distribution Large intestine ([2]; 30 min after administration): 0.23 ± 0.01 % ID/g
Radioactivity distribution Liver ([2]; 30 min after administration): 2.59 ± 0.07 % ID/g
Radioactivity distribution Lung ([2]; 30 min after administration): 0.65 ± 0.03 % ID/g
Radioactivity distribution Muscle (lower limbs) ([2]; 30 min after administration): 0.16 ± 0.01 % ID/g
Radioactivity distribution Remaining whole body ([2]; 30 min after administration): 0.24 ± 0.01 % ID/g
Radioactivity distribution Small intestine ([2]; 30 min after administration): 2.75 ± 0.21 % ID/g
Radioactivity distribution Spleen ([2]; 30 min after administration): 3.80 ± 0.26 % ID/g
Radioactivity distribution Stomach ([2]; 30 min after administration): 1.66 ± 0.35 % ID/g
Radioactivity distribution Testis ([2]; 30 min after administration): 0.11 ± 0.01 % ID/g
Radioactivity distribution Whole brain ([2]; 30 min after administration): 0.03 ± 0.00 % ID/g
Adrenal gland/blood ratio of radioactivity accumulation ([2]; 60 min after administration): 161.94 ± 14.16
Adrenal gland/fat ratio of radioactivity accumulation ([2]; 60 min after administration): 229.99 ± 79.47
Adrenal gland/kidney ratio of radioactivity accumulation ([2]; 60 min after administration): 22.62 ± 2.40
Adrenal gland/liver ratio of radioactivity accumulation ([2]; 60 min after administration): 8.81 ± 1.68
Adrenal gland/muscle ratio of radioactivity accumulation ([2]; 60 min after administration): 168.08 ± 24.28
Adrenal gland/small intestine ratio of radioactivity accumulation ([2]; 60 min after administration): 5.20 ± 0.46
Radioactivity distribution Adrenal gland ([2]; 60 min after administration): 19.67 ± 3.42 % ID/g
Radioactivity distribution Bladder (including urine) ([2]; 60 min after administration): 2.06 ± 0.40 % ID/g
Radioactivity distribution Blood ([2]; 60 min after administration): 0.12 ± 0.01 % ID/g
Radioactivity distribution Fat ([2]; 60 min after administration): 0.09 ± 0.02 % ID/g
Radioactivity distribution Femur ([2]; 60 min after administration): 0.62 ± 0.04 % ID/g
Radioactivity distribution Heart ([2]; 60 min after administration): 0.40 ± 0.02 % ID/g
Radioactivity distribution Kidney ([2]; 60 min after administration): 0.87 ± 0.07 % ID/g
Radioactivity distribution Large intestine ([2]; 60 min after administration): 0.35 ± 0.06 % ID/g
Radioactivity distribution Liver ([2]; 60 min after administration): 2.24 ± 0.16 % ID/g
Radioactivity distribution Lung ([2]; 60 min after administration): 0.60 ± 0.03 % ID/g
Radioactivity distribution Muscle (lower limbs) ([2]; 60 min after administration): 0.12 ± 0.01 % ID/g
Radioactivity distribution Remaining whole body ([2]; 60 min after administration): 0.22 ± 0.01 % ID/g
Radioactivity distribution Small intestine ([2]; 60 min after administration): 3.77 ± 0.38 % ID/g
Radioactivity distribution Spleen ([2]; 60 min after administration): 3.05 ± 0.35 % ID/g
Radioactivity distribution Stomach ([2]; 60 min after administration): 1.90 ± 0.35 % ID/g
Radioactivity distribution Testis ([2]; 60 min after administration): 0.16 ± 0.03 % ID/g
Radioactivity distribution Whole brain ([2]; 60 min after administration): 0.03 ± 0.00 % ID/g
Radiochemical purity after incubation in human plasma [3]: 88%
